The values that follow are results of earlier work, collected in patent US5514673A, “Pharmaceutical composition containing lipophilic drugs” (priority 1993, dated 1996).

The conditions of data set [1]: for first pass effect: oral.
For data set [2] the following is noted: physiological saline solution.
The conditions of data set [3]: sublingual and buccal, sex hormone compositions.
For data set [4] the following is noted: in vivo.
The conditions of data set [5]: animal tests.

With `C[C@]12CC[C@@H]3c4ccc(O)cc4CC[C@H]3[C@@H]1CC[C@@H]2O` [17β-estradiol], in data set [1], the oral effectiveness entry is reported as “very limited oral effectiveness” and the first pass effect result was “high first pass effect”. Moreover, the “suitability of intranasal administration” value in data set [2] is “unsuitable”.

Regarding `CC(=O)[C@H]1CC[C@H]2[C@@H]3CCC4=CC(=O)CC[C@]4(C)[C@H]3CC[C@]12C` [Progesterone, progesterone], in data set [1], the oral effectiveness result was “very limited oral effectiveness” and the first pass effect entry is recorded as “high first pass effect”.

Regarding dimethyl-β-cyclodextrin, in data set [3], the “effect on the absorption” value was “virtually no effect on the absorption”. In addition, in data set [4], the “nephrotoxicity and haemolytic activity” value was “nephrotoxicity and haemolytic activity”. Further, in data set [5], the “influence on drug uptake” value is “adversely influence the drug uptake”.
